Results taken from patent publication US8193353B2, “6-1H-imidazo-quinazoline and quinolines derivatives, new potent analgesics and anti-inflammatory agents” (Rottapharm S.p.A, priority 2006, dated 2012).
pIC50: −log10 of the molar value. Like-named read-outs stand apart in the source and are kept apart here.

Experiments:
[1] = system: mechanical hyperalgesia associated with STZ-induced diabetes; experiment: STZ-induced diabetes mechanical hyperalgesia (neuropathic pain); type: in vivo, rat; conditions: for ED50: Rattus norvegicus, ip, read-out: ED50 0.5 hrs; for ED100 0.5 hrs: i.p.
Experimental: Painful diabetic neuropathy is one of the most common complications of insulin-dependent diabetes in man; in particular, diabetes can be associated with neuropathic pain which fails to be treated by classical analgesics. Streptozotocin (STZ)-induced diabetes in the rat has been increasingly used as a model of painful diabetic neuropathy to assess the efficacies of potential analgesic agents (C. Courteix, Pain 1993, 53, 81-8). The compounds of the invention were tested for efficacy in reducing mechanical hyperalgesia associated with STZ-induced diabetes in the rat, according to the experimental model as described by the literature. Diabetes was produced with the injection of a single dose (75 mg/Kg i.p.) of STZ. In the following four weeks after the induction of diabetes the clinical symptoms (weight, body and skin temperature, motility and hyperglycemia) progressively developed by the animals, are strictly monitored. After four weeks, the scores obtained in diabetic rats to various pain stimuli (in particular mechanical stimuli) were greater than those in normal rats, indicating hyperalgesia. The hyperalgesia induced by diabetes was evaluated using the Randall-Selitto method as above described, and quantitated using the analgesimeter. Also in this case, the difference in the mechanical pain threshold between the basal value (generally 230-250 g) and the one tolerated by the animals treated with the drug, is defined as mechanical hyperalgesia. The compounds of the invention were administered i.p. (solution, Tween 80, 10% in saline) at different doses, and mechanical hyperalgesia was measured at the reported time, as maximum percent effect (MPE) which represents the difference (%) in pain threshold between the animals treated with the drug and the controls that received only the vehicle, compared with the weight borne by naïf non-diabetic controls. A 100% protection means that the diabetic animals treated with the compound can tolerate the same stimulus (weight) as the naïf non-diabetic animals. MPE higher than 100% means that the diabetic animal treated with the compound can tolerate stimuli (weight) higher than the control non-diabetic animals (hypoalgesia).
In particular, from the MPE data at 0.5 hrs, the doses yielding a protection of 50% (ED50) and 100% (ED100) have been calculated.

[2] = system: Zymosan-induced mechanical hyperalgesia; experiment: Zymosan-induced mechanical hyperalgesia (Randall-Selitto), inflammatory pain; type: in vivo, rat; conditions: for ED50: Rattus norvegicus, read-out: Analgesia ED50
Experimental: (§1) The interplantar injection of Zymosan-induced mechanical hyperalgesia was used as a model of inflammatory pain (Meller, Neuropharmacology, 1994, 33, 1471-1478). In this model, typically a male Sprague-Dawley or Wistar rat (200-250 g) receives an interplantar injection of 3 mg/100 μl zymosan into one hind paw. A marked inflammation occurs in this hind paw. Drugs are administered orally for evaluation of efficacy, 30 min. before the inflammatory insult. The hyperalgesia induced by zymosan administration was evaluated using the Randall-Selitto method (Arch. Int. Pharmacodyn., 1957, 111, 409). The quantitation of the analgesic effect is achieved by an analgesimeter, which consist in applying to the inflamed paw an increasing weight (from 130-140 g up to 500 g). The difference in the mechanical pain threshold between the basal value (generally 230-250 g) and the one tolerated by the animals treated with the drug, determined 4 hours after the inflammatory challenge, is defined as mechanical hyperalgesia. Mechanical hyperalgesia is expressed for the compounds of the invention as ED50, which is the dose of the administered compound able to increase the pain threshold by 50% in comparison with the group of control animals. The corresponding ED100, representing the dose able of reducing of 100% the pain threshold, can be calculated for those cases where there is a linear dose-response relationship. In vivo anti-inflammatory effect exerted by the compound of the invention can be assessed in the same Zymosan induced inflammation test described above, by measuring the volume of the oedema induced by the inflammatory agent. The oedema was evaluated as the increase in the volume of the Zymosan injected paw within a time of 0-2 hrs. The measurements of the variation of the oedema volume of the paw were recorded using hydroplethysmometer, which consists of two plastic cuvettes containing a surfactant liquid, the larger one being used for immersion of the paw, connected to the smaller one which contains a transducer capable of recording small displacements of the volume used for the measure. The paw is immersed in the cuvettes up to the tibiotarsal joint. The volume of the liquid displaced is proportional to the extent of the inflammation. The efficacy of the compounds of the invention in preventing oedema formation is expressed as ED30, is measured 2 hours after the inflammatory challenge, and represents the dose able of reducing of 30%, the Zymosan induced paw volume increase in comparison to control animals (animals treated with Zymosan but treated with only distilled water instead of the testing compound). The corresponding ED50, representing the dose able of reducing of 50% the Zymosan induced paw volume increase, can be calculated for those cases where there is a linear dose-response relationship. In both the experiments, for each test compound, at least three doses were used, with 10 animals per group. Compounds of the invention were tested at 10, 20 and 40 mg/Kg.

[3] = system: Zymosan induced paw volume increase; experiment: Zymosan-induced paw oedema; type: in vivo, rat; conditions: oral, 2 hours after challenge
Experimental: as §1

COX-2 = COX-2 production in IL-1 stimulated human chondrosarcoma cell line; type: cell-based; conditions: for inhibition at 0.3 µM / inhibition at 1 µM / inhibition at 10 µM: Homo sapiens
Source text: (§2) The compounds of the invention have been found effective in interfering with COX-2 and cytokines production, in several cell lines; examples of these effects are reported in Table 3, for COX-2 and IL-1β and IL-6 cytokines, in IL-1 stimulated human chondrosarcoma cell line.

IL-1β = IL-1β production in IL-1 stimulated human chondrosarcoma cell line; type: cell-based
Source text: as §2

IL-6 = IL-6 production in IL-1 stimulated human chondrosarcoma cell line; type: cell-based
Source text: as §2

[4] = system: CFA-induced prolonged inflammation; experiment: CFA model of chronic inflammatory pain; type: in vivo, rat; conditions: for ED50: Rattus norvegicus, ip; for ED50 / ED100 0.5 hrs: calculated from MPE data at 0.5 hrs; for ED100 0.5 hrs: i.p.
[5] = even at the higher doses tested
Source text: The performance of representative compounds of Formula (I), in the tests described above, is summarized for both the analgesic effect and the anti-inflammatory effect in Table 4, where the activity of the compounds of the invention is compared with the performance in the same test of well known standards.

[6] = oral, 30 min before zymosan, 4 hours after challenge
[7] = calculated from MPE data at 0.5 hrs

## CN(C)CCC=C1c2ccccc2CCc2ccccc21 [Amitriptyline, reference compound]
[1]; 3 mg/kg i.p.
  MPE 0.5 hrs.: 44%
  MPE 1.5 hrs.: 40%
  MPE 3 hrs.: 5%
[1]; 10 mg/kg i.p.
  MPE 0.5 hrs.: 68%
  MPE 1.5 hrs.: 77%
[1]; 30 mg/kg i.p.
  MPE 0.5 hrs.: 65%
  MPE 1.5 hrs.: 69%
  MPE 3 hrs.: 23%

## Cc1ccc(-c2cc(C(F)(F)F)nn2-c2ccc(S(N)(=O)=O)cc2)cc1 [Celecoxib]
[2]; [6]
  ED50: 9 mg/kg
  Analgesia ED100: 1172 mg/kg
[3]
  Oedema Reduction ED30: 13.8 mg/kg

## c1ccc(-c2ncc3cc(-n4ccnc4)ccc3n2)cc1 [Example 1, [2-phenyl-6-(1H-imidazol-1-yl)]quinazoline]
COX-2
  inhibition at 0.3 µM: 20%
IL-1β
  inhibition at 0.3 µM: 10%
IL-6
  inhibition at 0.3 µM: 35%
[2]; [6]
  ED50: 6.5 mg/kg
  Analgesia ED100: 10 mg/kg
[3]; Rattus norvegicus, read-out: Oedema Reduction ED50
  ED50: 97 mg/kg
[3]
  Oedema Reduction ED30: 7.3 mg/kg
[4]; 3 mg/kg i.p.
  MPE 0.5 hrs.: 52%
  MPE 1.5 hrs.: 4%
[4]; 10 mg/kg i.p.
  MPE 0.5 hrs.: 67%
  MPE 1.5 hrs.: 63%
  MPE 3 hrs.: 29%
  MPE 6 hrs.: 22%
  MPE 24 hrs.: 5%
[4]; 30 mg/kg i.p.
  MPE 0.5 hrs.: 367%
  MPE 1.5 hrs.: 368%
  MPE 3 hrs.: 321%
  MPE 6 hrs.: 239%
  MPE 24 hrs.: 60%
[4]
  ED50: 5.5 mg/kg
  ED100 0.5 hrs: 9.6 mg/kg
[1]; 3 mg/kg i.p.
  MPE 0.5 hrs.: 24%
[1]; 10 mg/kg i.p.
  MPE 0.5 hrs.: 41%
  MPE 1.5 hrs.: 68%
[1]; 30 mg/kg i.p.
  MPE 0.5 hrs.: 236%
  MPE 1.5 hrs.: 225%
  MPE 3 hrs.: 171%
  MPE 6 hrs.: 34%
[1]; [7]
  ED50: 5.5 mg/kg
  ED100 0.5 hrs: 9.6 mg/kg

## c1cn(-c2ccc3nc(-c4ccc5c(c4)OCO5)ncc3c2)cn1 [Example 3, [2-(1,3-benzodioxol-5-yl)-6-(1H-imidazol-1-yl)]quinazoline]
COX-2
  inhibition at 0.3 µM: 35%
  inhibition at 1 µM: 64%
  inhibition at 10 µM: 75%
COX-2; IL-1 stimulated human chondrosarcoma cell line, read-out: IC50 (inhibition of COX-2 production)
  pIC50: 6.20
IL-1β
  inhibition at 0.3 µM: 20%
  inhibition at 1 µM: 15%
  inhibition at 10 µM: 40%
IL-6
  inhibition at 0.3 µM: 20%
IL-6; 1 μM
  inhibition at 1 µM: 35%
[2]; [6]
  ED50: 2.8 mg/kg
  Analgesia ED100: 5 mg/kg
[3]
  Oedema Reduction ED30: 172 mg/kg
[4]; 3 mg/kg i.p.
  MPE 0.5 hrs.: 54%
  MPE 1.5 hrs.: 90%
  MPE 3 hrs.: 32%
  MPE 6 hrs.: 5%
[4]; 10 mg/kg i.p.
  MPE 0.5 hrs.: 216%
  MPE 1.5 hrs.: 188%
  MPE 3 hrs.: 85%
  MPE 6 hrs.: 23%
  MPE 24 hrs.: 3%
[4]; 30 mg/kg i.p.
  MPE 0.5 hrs.: 344%
  MPE 1.5 hrs.: 198%
  MPE 3 hrs.: 101%
  MPE 6 hrs.: 49%
  MPE 24 hrs.: 41%
[4]
  ED50: 2.7 mg/kg
  ED100 0.5 hrs: 4.7 mg/kg
[1]; 3 mg/kg i.p.
  MPE 0.5 hrs.: 73%
  MPE 1.5 hrs.: 88%
  MPE 3 hrs.: 50%
  MPE 6 hrs.: 24%
[1]; 10 mg/kg i.p.
  MPE 0.5 hrs.: 141%
  MPE 1.5 hrs.: 143%
  MPE 3 hrs.: 98%
  MPE 6 hrs.: 49%
[1]; 30 mg/kg i.p.
  MPE 0.5 hrs.: 283%
  MPE 1.5 hrs.: 273%
  MPE 3 hrs.: 263%
  MPE 6 hrs.: 264%
[1]; [7]
  ED50: 2.9 mg/kg
  ED100 0.5 hrs: 5.3 mg/kg

## c1cn(-c2ccc3nc(-c4ccc5c(c4)OCCO5)ncc3c2)cn1 [Example 5]
COX-2
  inhibition at 0.3 µM: 50%
  inhibition at 1 µM: 60%
  inhibition at 10 µM: 70%
IL-1β
  inhibition at 0.3 µM: 20%
  inhibition at 1 µM: 30%
  inhibition at 10 µM: 40%
IL-6; 10 μM
  inhibition at 10 µM: 35%

## CS(=O)(=O)Nc1ccc([N+](=O)[O-])cc1Oc1ccccc1 [Nimesulide]
[2]; [6]
  ED50: 7.4 mg/kg
  Analgesia ED100: 161 mg/kg
[3]
  Oedema Reduction ED30: 0.5 mg/kg
[5]
  ulcerative side effects: ulcerative side effects

## CN1C(C(=O)Nc2ccccn2)=C(O)c2ccccc2S1(=O)=O [Piroxicam, reference compound]
[4]; 30 mg/kg i.p.
  MPE 0.5 hrs.: 102%
  MPE 1.5 hrs.: 111%
  MPE 3 hrs.: 54%
  MPE 6 hrs.: 24%
  MPE 24 hrs.: 38%

## COc1cccc(C2(O)CCCCC2CN(C)C)c1 (stereo not shown) [Tramadol, reference compound]
[2]
  ED50: 25.7 mg/kg
[2]; [6]
  Analgesia ED100: 405 mg/kg
[1]; 3 mg/kg i.p.
  MPE 0.5 hrs.: 26%
  MPE 1.5 hrs.: 53%
  MPE 3 hrs.: 7%
[1]; 10 mg/kg i.p.
  MPE 0.5 hrs.: 58%
  MPE 1.5 hrs.: 48%
  MPE 3 hrs.: 27%
[1]; 30 mg/kg i.p.
  MPE 0.5 hrs.: 54%
  MPE 1.5 hrs.: 64%
  MPE 3 hrs.: 23%
[1]; 50 mg/kg i.p.
  MPE 0.5 hrs.: 81%
  MPE 1.5 hrs.: 60%
  MPE 3 hrs.: 43%
[1]; 0.5 h
  ED50: 10.9 mg/kg
[1]; extrapolated from a dose-response curve approaching the 100% protection
  ED100 0.5 hrs: 251 mg/kg
